Data reported in publication PMC12251482, “Floridoside Phosphotriester Derivatives: Synthesis and Inhibition of Human Neutrophils’ Oxidative Burst” (Molecules, 2025).

Tests used:
[1] = system: PMA-stimulated human neutrophils; assay: H2O2 generation by PMA-stimulated neutrophils, oxidation of Amplex Red; format: cell-based; conditions: PMA 160 nM, mean ± SEM; for IC50 / inhibition at 50 µM: Homo sapiens, Neutrophil; for Amplex Red: highest obtained % of inhibition / inhibition at 50 µM: at 50 µM; for inhibition at 50 µM: read-out: Amplex Red: highest obtained % of inhibition
Description: Amplex Red is a highly sensitive and chemically stable fluorescent probe for the extracellular detection of H2O2 [82]. The methodology used previously for monitoring the modulation of the oxidative burst was adapted. In a 96-well plate, neutrophils (2 × 10^6 cells/mL) were incubated in the dark at 37 °C for 5 min with Amplex Red (25 μM), horseradish peroxidase (0.25 U/mL), and the compounds under study (10–100 μM) or DMSO (4%). Quercetin (0.3–5.0 μM) and DPI (0.01–10 μM) were used as controls. After incubation, PMA (160 nM) was added, and the fluorescence (excitation at 530 nm and emission at 590 nm) was measured in a microplate reader (Synergy HT, BioTek Instruments, Inc., Winooski, VT, USA). Obtained values correspond to the slope measured between 5 and 10 min. Effects are expressed as the percentage inhibition of Amplex Red oxidation. The results obtained represent at least three independent experiments. […] 3.4.3 Oxidation of Amplex Red
Amplex Red is a highly sensitive and chemically stable ﬂuorescent probe for the extracellular detection of H2O2 [16]. The methodology used previously for monitoring the modulation of the oxidative burst was adapted.
In a 96-well plate, neutrophils (2 x 10^6 cells/mL) were incubated in the dark at 37 °C for 5 minutes with Amplex Red (25 µM), horseradish peroxidase (0.25 U/mL) , and the compounds under study (10 - 100 µM) or DMSO (4%). Quercetin (0.3 - 5.0 µM) and DPI (0.01 - 10 µM) were used as positive controls for inhibition. After incubation, PMA (160 nM) was added, and the ﬂuorescence (excitation at 530 nm and emission at 590 nm) was measured in a microplate reader (Synergy HT, BioTek Instruments, Inc., Winooski, VT, USA). Obtained values correspond to the slope measured between 5 and 10 minutes. Eﬀects are expressed as the percentage inhibition of Amplex Red oxidation. The obtained results represent at least three independent experiments.
(§1) GraphPad Prism 6 software was used to plot the inhibition percentage versus compound concentration curves, enabling the determination of the concentration required to achieve 50% inhibition (IC50). GraphPad Prism 6 software was also used to perform all statistical analyses.
(§2) […] was estimated by applying the one-way analysis (ANOVA), followed by the Bonferroni’s multiple comparisons test. In all cases, p-values < 0.05 were considered statistically signiﬁcant. The results are expressed as mean ± standard error of the mean (SEM).

[2] = system: PMA-stimulated human neutrophils; assay: PMA-induced neutrophils' oxidative burst, oxidation of luminol (chemiluminescence); format: cell-based; conditions: PMA 160 nM, mean ± SEM; for IC50 / inhibition at 100 µM: Homo sapiens, Neutrophil; for Luminol: highest obtained % of inhibition / inhibition at 100 µM: at 100 µM; for inhibition at 100 µM: read-out: Luminol: highest obtained % of inhibition
Description: Luminol is easily oxidized by reactive species produced during neutrophils’ oxidative burst, resulting in a chemiluminescent signal. The effect of the compounds under study on the modulation of neutrophil oxidative burst was determined after stimulation with PMA, a known neutrophil activator, because its effect is closely analogous to that obtained during the phagocytic process. Following a previously reported method, in a 96-well plate, neutrophils were incubated in the dark at 37 °C for 5 min with luminol (500 μM) and the tested compounds (10–100 μM) or DMSO (final concentration 4%). Quercetin, a flavonoid known for its anti-inflammatory activity (0.3–5.0 μM), and the inhibitor of NADPH oxidase, DPI (0.01–10 μM), were used as controls. After incubation, PMA (160 nM) was added, and the chemiluminescence was measured in a microplate reader (Synergy HT, BIO-TEK Instruments, Inc., Winooski, VT, USA). Kinetic readings were initiated immediately after cell stimulation. Measurements were taken at the peak of the curve. […] Effects are expressed as the inhibition percentage of luminol oxidation. The results obtained represent at least three independent experiments. […]
3.4 Evaluation of neutrophils' oxidative burst
3.4.1 Oxidation of luminol
Luminol is easily oxidized by reactive species produced during neutrophils’ oxidative burst, resulting in a chemiluminescent signal. The eﬀect of the compounds under study on the modulation of neutrophil oxidative burst was determined after stimulation with PMA, a known neutrophil activator, because its eﬀect is closely analogous to that obtained during the phagocytic process. Following a previously reported method, in a 96-well plate, neutrophils were incubated in the dark at 37 °C for 5 minutes with luminol (500 µM) and the tested compounds (10 - 100 µM) or DMSO (ﬁnal concentration 4%). Quercetin, a ﬂavonoid known for its anti-inﬂammatory activity (0.3 - 5.0 µM), and the inhibitor of NADPH oxidase, DPI (0.01 - 10 µM), were used as positive and negative controls, respectively. After incubation, PMA (160 nM) was added, and the chemiluminescence was measured in a microplate reader (Synergy HT, BIO-TEK Instruments, Inc., Winooski, VT, USA). Kinetic readings were initiated immediately after cell stimulation. Measurements were taken at the […]
peak of the curve. […] Eﬀects are expressed as the inhibition percentage of luminol oxidation. The obtained results represent at least three independent experiments.

[3] = system: PMA-stimulated human neutrophils; assay: HOCl generation by PMA-stimulated neutrophils, oxidation of APF; format: cell-based; conditions: PMA 160 nM, mean ± SEM; for IC50 / inhibition at 50 µM: Homo sapiens, Neutrophil; for APF: highest obtained % of inhibition / inhibition at 50 µM: at 50 µM; for inhibition at 50 µM: read-out: APF: highest obtained % of inhibition
Description: APF is a non-fluorescent derivative of fluorescein, which is oxidized by HOCl, ONOO^−, and HO^• [87], in a concentration-dependent manner. Its selectivity was tested using the myeloperoxidase (MPO) inhibitor, 4-aminobenzoic acid hydrazide (ABAH). The addition of ABAH to human neutrophils, stimulated with PMA, decreased the APF-dependent fluorescence signal to the level of the control assay, ruling out the involvement of HO^• and ONOO^− [88]. The previously established methodology for monitoring oxidative burst modulation was adapted. In a 96-well plate, neutrophils (2 × 10^6 cells/mL) were incubated in the dark at 37 °C for 5 min with APF (2 μM) and the tested compounds (10–100 μM) or DMSO (4%). Quercetin (0.3–5.0 μM) and DPI (0.01–10 μM) were used as controls. After incubation, PMA (160 nM) was added, and the fluorescence (excitation at 495 nm and emission at 528 nm) was measured in a microplate reader (Synergy HT, BIO-TEK Instruments, Inc., Winooski, VT, USA). Kinetic readings were initiated immediately after the addition of APF. Obtained values correspond to the slope measured between 5 and 15 min. Effects are expressed as the percentage inhibition of APF oxidation. The results obtained represent at least three independent experiments.
APF is a non-ﬂuorescent derivative of ﬂuorescein, which is oxidized by HOCl, [20] ONOO-, and HO• [21] in a concentration- dependent manner. Its selectivity was tested using the myeloperoxidase (MPO) inhibitor, 4-aminobenzoic acid hydrazide (ABAH). The addition of ABAH to human neutrophils, stimulated with PMA, decreased the APF-dependent ﬂuorescence signal to the level of the control assay, ruling out the involvement of HO• and ONOO− [22]. The previously established methodology for monitoring oxidative burst modulation was adapted. In a 96-well plate, neutrophils (2 x 10^6 cells/mL) were incubated in the dark at 37 °C for 5 minutes with APF (2 µM) and the tested compounds (10 - 100 µM) or DMSO (4%). Quercetin (0.3 - 5.0 µM) and DPI (0.01 - 10 µM) were used as positive and negative controls, respectively. After incubation, PMA (160 nM) was added, and the ﬂuorescence (excitation at 495 nm and emission at 528 nm) was measured in a microplate reader (Synergy HT, BIO-TEK Instruments, Inc., Winooski, VT, USA). Kinetic readings were initiated immediately after the addition of APF. Obtained values correspond to the slope measured between 5 and 15 minutes. Eﬀects are expressed as the percentage inhibition of APF oxidation. The obtained results represent at least three independent experiments. […]
as §1, §2

RAW 264.7 macrophages = system: RAW 264.7 macrophages; parameters: method as in PMID 11292070, doi:10.1016/j.fbio.2025.105894; conditions: read-out: IC50 for the inhibition of •NO; cited from earlier work

c1ccc2c(c1)[I+]c1ccccc1-2 [DPI, diphenyleneiodonium chloride, reference compound]
IC50 [1]: 60 ± 4 nM | IC50 [2]: 80 ± 10 nM | IC50 [3]: 30 ± 3 nM

COc1ccc2c(c1)c(CC(=O)O)c(C)n2C(=O)c1ccc(Cl)cc1 [indomethacin]
IC50 (RAW 264.7 macrophages): 10100 nM

3-Hydroxy-2-(galactopyranosyl)propyl bis(3-phenylpropyl) phosphate [Compound 1f]
Amplex Red: highest obtained % of inhibition [1]: <20% ^50µM | Luminol: highest obtained % of inhibition [2]: <20% ^100µM | APF: highest obtained % of inhibition [3]: <20% ^50µM

O=c1c(O)c(-c2ccc(O)c(O)c2)oc2cc(O)cc(O)c12 [Quercetin, quercetin, reference compound]
IC50 [1]: 4100 ± 300 nM | IC50 [2]: 1200 ± 200 nM | IC50 [3]: 2400 ± 200 nM

COc1ccc(CCCOP(=O)(OCCCc2ccc(OC)c(OC)c2)OCC(CO)OC2OC(CO)C(O)C(O)C2O)cc1OC (stereo not shown) [Compound 1g, 3-Hydroxy-2-(galactopyranosyl)propyl (bis(3-(3,4-dimethoxyphenyl)propyl) phosphate]
inhibition at 50 µM [1]: < 20% | inhibition at 100 µM [2]: < 20% | inhibition at 50 µM [3]: < 20%

NCCOP(=O)(OCCN)OCC1OC(OC(CO)CO)C(O)C(O)C1O (stereo not shown) [Compound 1d]
inhibition at 50 µM [1]: 30 ± 9% | inhibition at 100 µM [2]: < 20% | inhibition at 50 µM [3]: 21 ± 6%

3-Hydroxy-2-galactopyranosylpropyl (bis(2-aminoethyl)) phosphate [Compound 1c]
Amplex Red: highest obtained % of inhibition [1]: <20% ^50µM | Luminol: highest obtained % of inhibition [2]: <20% ^100µM | APF: highest obtained % of inhibition [3]: 22 ± 8% ^50µM
